Laboratory results from patent publication US9289430B2, “Compounds and methods for inhibiting phosphate transport” (Ardelyx, Inc., priority 2010, dated 2016).

Tests used:
human NaP2b (SLC34A2) = molecular target: T1, human NaP2b (SLC34A2) (Homo sapiens, UniProt O95436); assay: NaP2b-mediated Pi transport: 33P phosphate uptake into transfected HEK293 cells; format: cell-based; details: human protein with threonine inserted after residue 37 and N39D, 100 uM KH2PO4, read-out: pIC50 range for human Nap2b (converted)
T1 construct: host or cells: HEK293
T1 sequence (O95436 1-690): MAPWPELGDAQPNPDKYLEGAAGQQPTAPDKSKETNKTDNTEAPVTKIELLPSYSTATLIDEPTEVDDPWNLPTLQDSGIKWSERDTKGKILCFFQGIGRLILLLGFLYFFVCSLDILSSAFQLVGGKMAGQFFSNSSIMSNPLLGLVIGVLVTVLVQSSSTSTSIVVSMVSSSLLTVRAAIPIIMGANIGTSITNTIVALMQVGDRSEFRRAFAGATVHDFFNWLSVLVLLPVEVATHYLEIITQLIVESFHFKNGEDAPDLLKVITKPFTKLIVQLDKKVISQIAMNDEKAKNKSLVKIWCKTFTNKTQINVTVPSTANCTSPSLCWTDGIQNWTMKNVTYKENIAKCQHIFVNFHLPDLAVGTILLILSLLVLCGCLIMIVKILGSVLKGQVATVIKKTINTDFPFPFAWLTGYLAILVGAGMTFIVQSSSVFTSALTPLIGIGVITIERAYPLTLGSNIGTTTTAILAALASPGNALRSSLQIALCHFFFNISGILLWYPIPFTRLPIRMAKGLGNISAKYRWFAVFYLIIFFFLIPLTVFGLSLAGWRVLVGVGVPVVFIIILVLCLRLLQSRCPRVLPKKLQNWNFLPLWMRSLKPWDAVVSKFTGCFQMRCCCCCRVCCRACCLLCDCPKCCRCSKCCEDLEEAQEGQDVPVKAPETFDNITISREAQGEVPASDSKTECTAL
Description: (§1) Materials. HEK293 cells were obtained from the American Type Culture collection and propagated per their instructions. Expression clones for rat and human NaP2b (SLC34A2) were obtained from Open Biosystems (Catalog numbers MRN1768-9510282, and MHS1010-99823026, respectively). The sequence of the human protein was mutated to insert a threonine after residue 37, and to introduce a N39D mutation.
(§2) Inhibition of Pi Transport. The rate of phosphate (Pi) uptake into HEK293 cells was measured using a modification of the method described by Mohrmann et al. (Mohrmann, I., Mohrmann, M., Biber, J., and Murer, H. (1986) Am. J. Phys. 250(3 Pt 1):G323-30.) Transfected HEK293 cells were treated with a pharmacological agent to minimize endogenous PiT-mediated phosphate transport activity, such that the only remaining sodium-dependent phosphate transport activity is that which was bestowed by introduction of the NaP2b genes.
(§3) Cells were seeded into 96-well plates at 25,000 cells/well and cultured overnight. Lipofectamine 2000 (Invitrogen) was used to introduce the NaP2b cDNA, and the cells were allowed to approach confluence during a second overnight incubation. […] Cells were then overlayed with either choline uptake buffer or sodium uptake buffer (14 mM Tris, 137 mM sodium chloride, 5.4 mM KCl, 2.8 mM CaCl2, 1.2 mM MgSO4, 100 uM KH2PO4, PiT-silencing agent, 1 mg/mL Bovine Serum Albumin, pH 7.4) containing 6-9 uCi/mL ^33P orthophosphoric acid (Perkin Elmer) and test compound. Each compound was tested at twelve concentrations ranging from 0.1 nM to 30 uM. Assays were run in duplicate.
(§4) After incubation for 3-30 minutes at room temperature, assay mixtures were removed, and the cells were washed twice with ice cold stop solution (137 mM sodium chloride, 14 mM Tris, pH 7.4). Cells were lysed by addition of 20 μL 0.1% Tween 80 followed by 100 μL scintillation fluid, and counted using a TopCount (Perkin Elmer).
(§5) pIC50 (the negative log of the IC50) values of the test compounds were calculated using GraphPad Prism.

rat NaP2b (SLC34A2) = molecular target: T2, rat NaP2b (SLC34A2) (Rattus norvegicus, UniProt Q9JJ09); assay: as above; format: cell-based; details: 100 uM KH2PO4, PiT-silencing agent; for IC50: read-out: pIC50 range for rat Nap2b (converted)
T2 construct: host or cells: HEK293
T2 sequence (Q9JJ09 1-695): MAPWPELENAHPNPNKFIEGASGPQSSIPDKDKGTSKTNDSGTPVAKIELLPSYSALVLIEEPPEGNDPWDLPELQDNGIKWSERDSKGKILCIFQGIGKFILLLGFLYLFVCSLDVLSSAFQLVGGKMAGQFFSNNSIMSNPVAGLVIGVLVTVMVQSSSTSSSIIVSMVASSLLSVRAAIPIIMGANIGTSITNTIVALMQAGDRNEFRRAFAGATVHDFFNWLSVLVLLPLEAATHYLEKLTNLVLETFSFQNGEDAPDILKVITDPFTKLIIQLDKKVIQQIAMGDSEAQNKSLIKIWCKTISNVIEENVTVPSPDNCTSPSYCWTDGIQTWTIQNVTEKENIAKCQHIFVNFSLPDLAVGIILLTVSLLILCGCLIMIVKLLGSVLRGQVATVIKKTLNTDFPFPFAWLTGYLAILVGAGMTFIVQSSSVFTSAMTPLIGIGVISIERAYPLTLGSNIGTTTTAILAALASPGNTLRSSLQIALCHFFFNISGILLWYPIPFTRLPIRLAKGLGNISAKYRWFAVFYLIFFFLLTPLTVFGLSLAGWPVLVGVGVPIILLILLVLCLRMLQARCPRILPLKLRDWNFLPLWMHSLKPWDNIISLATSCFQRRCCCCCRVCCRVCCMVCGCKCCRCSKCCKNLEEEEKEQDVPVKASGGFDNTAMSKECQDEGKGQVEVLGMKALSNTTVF
Description: as §1, §2, §3, §4, §5

NaPi2b = assay: Competition with phosphate: uptake assay repeated at 2.1 vs 0.1 mM phosphate; format: cell-based; details: potency for inhibition of NaPi2b at 2.1 vs 0.1 mM phosphate
From the text: In certain preferred embodiments, the phosphate transport inhibitors of the present invention are not competitive inhibitors with respect to phosphate of Na/phosphate co-transport. In certain other preferred embodiments, the phosphate transport inhibitors of the invention are non-competitive inhibitors. Non-competitive inhibitors maintain their degree of inhibition irrespective of the local phosphate concentration. This feature is an important aspect in providing an efficient blockade of intestinal transport in postprandial state, where the local concentration of dietary phosphate can attain concentration as high as 10 mM. It is believed that competitive inhibitors are too sensitive to local phosphate concentration and unable to block phosphate uptake following a high phosphorus meal. Various methods are available for determining whether a phosphate transport inhibitor is non-competitive or competitive. For example, a phosphate uptake assay can be performed and the IC50 values for a compound at different phosphate concentrations can be determined (e.g., “Enzyme kinetics”, I. Segel, 1975, John-Wiley & Sons, p. 123). IC50 values for non-competitive inhibitors will remain the same or similar with respect to the phosphate concentration, whereas IC50 values for competitive inhibitors will increase (i.e. lose potency) as phosphate concentration increases.
To ascertain if an inhibitor was competitive for binding with phosphate, the procedure was repeated, but raising the concentration of the substrate in the assay mixture from 0.1 to 2.1 mM phosphate.

[1] = Determination of compound Cmax and AUC after oral gavage; format: in vivo, Sprague-Dawley rats; details: Sprague-Dawley, rat plasma, sampling 0.5-4 h
Description: Sprague-Dawley rats were orally gavaged with test article at a nominal dose of 2.5 or 10 mg/kg and blood was collected at 0.5, 1, 2 and 4 h. Blood samples were processed to plasma using K2EDTA as an anticoagulant. Plasma samples were treated with acetonitrile containing an internal standard, precipitated proteins removed by centrifugation. Supernatants were analyzed by LC-MS/MS and compound concentrations were determined by interpolated from a standard curve prepared in plasma. All compounds were orally dosed at the dosage shown, and pharmacokinetic parameters determined

[2] = Fecal recovery of orally administered compounds; format: in vivo, Sprague-Dawley rats; details: rats, oral gavage, feces 0-48 hr after dosing
Description: Quantitative determination of test compound level in feces after oral gavage was performed using the same set of animals used to determine test compound concentration in plasma (Example 30). The animals were kept in metabolic cages and feces were collected from the time of dosing until 48 hr after dosing. Upon collection, feces was dried by lyophilization and ground to a visually homogenous powder. Duplicate samples of ground feces from each individual animal were weighed out and extracted using organic solvent. Extracted samples were then diluted into mobile phase and test compound levels were quantitatively determined by LC-MS/MS analysis as described in “Example 30” except that the standard curve was prepared in a feces matrix. Extraction conditions were not optimized for individual compounds, and thus may represent a minimal level of recovery.

[3] = Stability in simulated gastric and intestinal fluid; format: in vitro ADME; details: 6 hr, 1-20 μM
Description: Test compounds were incubated at 1-20 μM in simulated gastric fluid (SGF; standard USP solution with 3 mg/mL pepsin) or simulated intestinal fluid (SIF; standard USP solution with 3 mg/mL pancreatin) for 3 hr or 6 hr. HPLC-UV or HPLC-MS were used to determine test compound levels using peak area %. Results (Table 5) were reported as the percentage of test compound remaining after incubation in a given condition relative to test compound present at t=0 in the same condition.

[4] = tested on: Uptake of Phosphate from the Intestine; assay: In vivo bolus phosphorus challenge; set-up: species or system Sprague-Dawley rats; details: rats on low-phosphorus diet, oral drug dose 30 (unit not given) 15 min before phosphate bolus, serum 30 min post bolus
Description: By pretreating animals with a low phosphorus diet followed by the subsequent dosing of a phosphorus bolus, serum phosphorus levels were monitored after 30 minutes as a surrogate for intestinal phosphorus absorption. […] The in vivo bolus phosphorus challenge model used here mimics this model in rats.
Male, 7-week-old Sprague-Dawley rats (Charles-River laboratories international, Hollister, Calif.) were allowed to acclimatize for a minimum of 3 days before switching to a synthetic low-phosphorus diet (TD.85010, Harlan Teklad, Madison, Wis.) which contains 0.1% phosphorus and 0.6% calcium. At day 5, testing compounds or vehicle alone (as indicated) were orally administered at the indicated dose in a volume of 5 ml/kg, followed by a bolus gavage of monobasic sodium phosphate (1 mmol in 1 ml) 15 min after compound dosing. Serum was collected via retroorbital bleeding 30 min post phosphate bolus and phosphate levels were determined utilizing an ACE ALERA blood chemistry analyzer (Alfa Wassermann Diagnostic Technologies, West Caldwell, N.J.).
The extent of inhibition by test compounds on the elevation of serum phosphate levels in response to the bolus of phosphate is shown in Table 3 (data are expressed as % Inhibition, with 6-10 animals per data point). The differences between groups were evaluated by one-way analysis of variance with Dunnett's post hoc tests.

[5] = nominal 10 mg/kg (actual 7.6-11 mg/kg)
[6] = nominal 2.5 mg/kg (actual 1.9 mg/kg)

Row | SMILES | IC50 (human NaP2b (SLC34A2)) [nM] | IC50 (rat NaP2b (SLC34A2)) [nM] | % recovered in feces [2, 5] [%] | other results
1 | O=C(O)P(=O)(O)O [PFA, reference compound] |  |  |  | pIC50 range for rat Nap2b (rat NaP2b (SLC34A2)): 2-3; Competitive with respect to Pi? (NaPi2b): Yes
2 | O=C(O)Cc1cccc(SCc2cccc(C(=O)Nc3ccc(N4CCCCC4)cc3C(=O)Nc3ccn(-c4cccc(C(F)(F)F)c4)n3)c2)c1 [Example 23, 2-(3-((3-((4-(Piperidin-1-yl)-2-((1-(3-(trifluoromethyl)phenyl)-1H-pyrazol-3-yl)carbamoyl)phenyl)carbamoyl)benzyl)thio)phenyl)acetic acid] | < 1000 | < 1000 |  | 
3 | CN(CCN1CCOCC1)C(=O)c1cccc(C(=O)Nc2ccc(N3CCCCC3)cc2C(=O)Nc2nc(-c3cccc(C(F)(F)F)c3)n[nH]2)c1 [Example 1, N1-Methyl-N1-(2-morpholinoethyl)-N3-(4-(piperidin-1-yl)-2-((3-(3-(trifluoromethyl)phenyl)-1H-1,2,4-triazol-5-yl)carbamoyl)phenyl)isophthalamide] | < 1000 | < 1000 |  | 
4 | O=C(O)c1cccc(SCc2cccc(C(=O)Nc3ccc(N4CCCCC4)cc3C(=O)Nc3ccn(-c4cccc(C(F)(F)F)c4)n3)c2)c1 [Example 18, 3-((3-((4-(Piperidin-1-yl)-2-((1-(3-(trifluoromethyl)phenyl)-1H-pyrazol-3-yl)carbamoyl)phenyl)carbamoyl)benzyl)thio)benzoic acid] |  | 1000 to 7940 | 60 | AUC [1, 6]: 2130 ng·h/mL; Cmax [1, 6]: 678 ng/mL; AUC [1, 5]: 6050 ng·h/mL; Cmax [1, 5]: 1820 ng/mL; % recovered in feces ([2]; dosed at 1.9 mg/kg): 12%; Competitive with respect to Pi? (NaPi2b): No

More lines, main results first:

Row | IC50 (human NaP2b (SLC34A2)) [nM] | IC50 (rat NaP2b (SLC34A2)) [nM] | % recovered in feces [2, 5] [%] | SMILES | other results
5 | 1000 to 7940 | 1000 to 7940 |  | CN(CCOCCOCCOCCC(=O)O)Cc1cccc(C(=O)Nc2ccc(N3CCCCC3)cc2C(=O)Nc2ccn(-c3cccc(C(F)(F)F)c3)n2)c1 [Example 17, 2-Methyl-1-(3-((4-(piperidin-1-yl)-2-((1-(3-(trifluoromethyl)phenyl)-1H-pyrazol-3-yl)carbamoyl)phenyl)carbamoyl)phenyl)-5,8,11-trioxa-2-azatetradecan-14-oic acid] | 
6 |  |  | 17 | O=C(O)CCOCCOCCOCCNC(=O)c1cccc(C(=O)Nc2ccc(Cl)cc2C(=O)Nc2ccn(-c3cccc(C(F)(F)F)c3)n2)c1 [Example 25, 1-(3-((4-chloro-2-((1-(3-(trifluoromethyl)phenyl)-1H-pyrazol-3-yl)-carbamoyl)phenyl)carbamoyl)phenyl)-1-oxo-5,8,11-trioxa-2-azatetradecan-14-oic acid] | AUC [1, 5]: < 3 ng·h/mL; % remaining, SGF ([3]; simulated gastric fluid with 3 mg/mL pepsin): 58%; % remaining, SIF ([3]; simulated intestinal fluid with 3 mg/mL pancreatin): 95%
7 | 1000 to 7940 | 1000 to 7940 | 9.5 | O=C(O)CCSCc1cccc(C(=O)Nc2ccc(N3CCCCC3)cc2C(=O)Nc2ccn(-c3cccc(C(F)(F)F)c3)n2)c1 [Example 7, 3-((3-((4-(Piperidin-1-yl)-2-((1-(3-(trifluoromethyl)phenyl)-1H-pyrazol-3-yl)carbamoyl)phenyl)carbamoyl)benzyl)thio)propanoic acid] | % Inhibition of Serum P elevation [4]: 49%
